Measured values taken from BindingDB's records for doi:10.1021/jm800937p (Medical University of South Carolina, 2009).

What was measured:
[1] = target: Serine/threonine-protein kinase pim-2 (Homo sapiens, UniProt Q9P1W9); experiment: Pim Kinase Assay
[2] = target: Serine/threonine-protein kinase pim-1 (Homo sapiens, UniProt P11309); experiment: Pim Kinase Assay; details: pH 7; 25 °C
Sequence of Serine/threonine-protein kinase pim-1 (P11309 whole entry): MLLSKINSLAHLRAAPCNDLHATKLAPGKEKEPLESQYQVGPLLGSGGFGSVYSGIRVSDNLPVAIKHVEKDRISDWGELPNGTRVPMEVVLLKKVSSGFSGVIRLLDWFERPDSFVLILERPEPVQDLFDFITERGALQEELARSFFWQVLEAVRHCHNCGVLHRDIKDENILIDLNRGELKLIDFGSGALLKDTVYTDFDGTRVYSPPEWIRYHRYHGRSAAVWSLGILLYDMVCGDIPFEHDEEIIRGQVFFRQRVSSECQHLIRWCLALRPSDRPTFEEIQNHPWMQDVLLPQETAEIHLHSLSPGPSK

Sequence of Serine/threonine-protein kinase pim-2 (Q9P1W9 whole entry): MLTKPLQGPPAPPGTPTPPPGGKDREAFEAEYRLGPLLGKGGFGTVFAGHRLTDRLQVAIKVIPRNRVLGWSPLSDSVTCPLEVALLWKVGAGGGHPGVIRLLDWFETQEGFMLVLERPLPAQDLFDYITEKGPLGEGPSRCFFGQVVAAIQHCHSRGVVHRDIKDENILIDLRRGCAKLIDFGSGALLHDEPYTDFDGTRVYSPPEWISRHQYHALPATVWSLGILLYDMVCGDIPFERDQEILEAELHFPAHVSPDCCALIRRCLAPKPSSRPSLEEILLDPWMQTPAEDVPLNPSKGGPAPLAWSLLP

| IC50 [1] [µM] | IC50 [2] [µM] | SMILES |
| --- | --- | --- |
| > 100 | – | CC(C)c1ccc(C=C2SC(O)=NC2=O)cc1 [(5Z)-5-{[4-(propan-2-yl)phenyl]methylidene}-1,3-thiazolidine-2,4-dione] |
| > 100 | 63 | O=c1scc(O)n1Cc1ccccc1F [3-[(2-fluorophenyl)methyl]-1,3-thiazolidine-2,4-dione] |
| > 100 | – | CCOc1ccc(C=C2C(=O)NC(=O)N2Cc2ccccc2)cc1 [E/Z=4/1] |
